Experimental findings from ChEMBL document CHEMBL3044543, “Synthetic sialic-acid-containing polyvalent antiviral inhibitors” (Med Chem Res, 2009) are described below.

One experiment addresses Hemagglutinin (Influenza A virus, UniProt K7N5L2). The experiment can be described thus: Binding affinity to Influenza virus A Hemagglutinin.
For experiment [1], the target named is Hemagglutinin (Influenza A virus) (UniProt K7N5L2). Description: Inhibition of Influenza virus A/H3N2/NIB/44/90M Hemagglutinin after 2 hr by horseradish peroxidase assay relative to Neu5Aalpha.

The structures appear in SMILES notation.

Compound `CC(=O)N[C@H]1[C@H]([C@H](O)[C@H](O)CO)OC(OCCCCCCC(=O)NCc2cccc3ccccc23)(C(=O)O)C[C@@H]1OC(=O)CNS(=O)(=O)c1cccc2c(N(C)C)cccc12` (some centres not stated) registered an IC50 at Hemagglutinin of 3 mM. This lies in the millimolar range.
In the case of `CC(=O)N[C@H]1[C@H]([C@H](O)[C@H](O)CO)OC(OCc2ccc(NC(=O)CNC(=O)CCCCC(=O)NCC(=O)NCC(=O)NCC(=O)NCC(=O)NCC(=O)NCC(=O)NCC(=O)NCC(CNC(=O)CNC(=O)CNC(=O)CNC(=O)CNC(=O)CNC(=O)CNC(=O)CNC(=O)CCCCC(=O)NCC(=O)Nc3ccc(COC4(C(=O)O)C[C@H](O)[C@@H](NC(C)=O)[C@H]([C@H](O)[C@H](O)CO)O4)cc3)(CNC(=O)CNC(=O)CNC(=O)CNC(=O)CNC(=O)CNC(=O)CNC(=O)CNC(=O)CCCCC(=O)NCC(=O)Nc3ccc(COC4(C(=O)O)C[C@H](O)[C@@H](NC(C)=O)[C@H]([C@H](O)[C@H](O)CO)O4)cc3)CNC(=O)CNC(=O)CNC(=O)CNC(=O)CNC(=O)CNC(=O)CNC(=O)CNC(=O)CCCCC(=O)NCC(=O)Nc3ccc(COC4(C(=O)O)C[C@H](O)[C@@H](NC(C)=O)[C@H]([C@H](O)[C@H](O)CO)O4)cc3)cc2)(C(=O)O)C[C@@H]1O` (some centres not stated), the Ratio in experiment [1] came out at 1000.

As a reminder, the IC50 is the concentration that inhibits the measured activity by half. Higher therefore signals weaker potency.
